Source: patent US20240239781A1, “1H-PYRAZOLE DERIVATIVES AS SIGMA LIGANDS” (ACONDICIONAMIENTO TARRASENSE, priority 2021, published 2024)

Experiments:
[1] = system: mechanical hypersensitivity; settings: SNI mice model of neuropathic pain; cited from earlier work
human σ1 receptor = molecular target: T1, human σ1 receptor (Homo sapiens, UniProt Q99720); test: Human σ1 receptor radioligand assay ([3H](+)-pentazocine, transfected HEK-293 membranes); settings: class scale, read-out: Binding σ-1 Ki
T1 construct: expressed in transfected cells; host or cells: HEK-293
T1 sequence (Q99720 whole entry): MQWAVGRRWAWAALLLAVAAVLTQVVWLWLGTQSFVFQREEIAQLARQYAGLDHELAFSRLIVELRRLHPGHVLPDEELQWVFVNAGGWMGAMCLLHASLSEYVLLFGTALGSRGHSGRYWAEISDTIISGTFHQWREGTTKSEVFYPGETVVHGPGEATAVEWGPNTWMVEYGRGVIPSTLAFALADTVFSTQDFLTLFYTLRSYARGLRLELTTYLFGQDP
Procedure, shortened: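 Membranes (7 μg) from transfected HEK-293 cells were incubated with 5 nM [3H](+)-pentazocine in 50 mM Tris-HCl, pH 8, for 120 minutes at 37° C, with 10 μM haloperidol defining non-specific binding. Bound radioactivity was filtered and counted by scintillation. Results are % inhibition at 1 or 10 μM or Ki from five concentrations.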

human σ2/TMEM97 receptor = molecular target: T2, human σ2/TMEM97 receptor (Homo sapiens, UniProt Q5BJF2); test: Binding assay to human σ2/TMEM97 receptor ([3H]-DTG, transfected HEK-293 membranes); settings: class scale, read-out: Binding σ-2 Ki
T2 construct: expressed in transfected cells; host or cells: HEK-293
T2 sequence (Q5BJF2 whole entry): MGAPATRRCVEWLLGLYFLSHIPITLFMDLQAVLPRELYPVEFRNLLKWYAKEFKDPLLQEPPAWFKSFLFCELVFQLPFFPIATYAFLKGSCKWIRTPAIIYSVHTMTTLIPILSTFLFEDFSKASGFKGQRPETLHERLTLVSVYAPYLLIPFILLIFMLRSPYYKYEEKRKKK
Procedure, shortened: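 Membranes (15 μg) from transfected HEK-293 incubated 120 min at 25 °C with 10 nM [3H]-DTG in 50 mM Tris-HCl pH 8.0; nonspecific binding with 10 μM haloperidol. Filtration and scintillation counting; % inhibition at 1 or 10 μM, or Ki from five concentrations.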

sigma-2 (σ2) site = sigma-2 (σ2) site (Homo sapiens, UniProt Q5BJF2); settings: background statement; cited from earlier work
Chain of sigma-2 (σ2) site (Q5BJF2 whole entry): as above

Row | Molecule | effect on mechanical hypersensitivity [1] | Ki (human σ1 receptor) [nM] | Ki (human σ2/TMEM97 receptor) [nM] | affinity for the sigma-2 (σ2) site (sigma-2 (σ2) site)
1 | OCCCN1CCCC2CC1c1cc(-c3ccc(C(F)(F)F)cc3)ccc12 (stereo not shown) [UKH-1114] | relieved mechanical hypersensitivity |  |  | 
2 | Cc1cc(-c2nn(C)c(Cl)c2CN2CCCCC(NCCC(C)(C)C)C2)no1 (stereo not shown) [Example 8, 1-((5-Chloro-1-methyl-3-(5-methylisoxazol-3-yl)-1H-pyrazol-4-yl)methyl)-N-(3,3-dimethylbutyl)azepan-3-amine] |  | 100 to 500 | 500 to 1000 | 
3 | Cc1cc(-c2nn(C)c(Cl)c2CN2CCCCC(CNCCC(C)C)C2)no1 (stereo not shown) [Example 59, N-((1-((5-Chloro-1-methyl-3-(5-methylisoxazol-3-yl)-1H-pyrazol-4-yl)methyl)azepan-3-yl)methyl)-3-methylbutan-1-amine] |  | 500 to 1000 | 100 to 500 | 
4 | CCc1cc(-c2nn(C)c(Cl)c2CN2CCCCC(NCCC(C)(C)C)C2)no1 (stereo not shown) [Example 20, 1-((5-Chloro-3-(5-ethylisoxazol-3-yl)-1-methyl-1H-pyrazol-4-yl)methyl)-N-(3,3-dimethylbutyl)azepan-3-amine] |  | 100 to 500 | 100 to 500 | 
5 | (+)-SKF-10047 |  |  |  | micromolar affinity
6 | CCCn1nc(-c2cc(C)on2)c(C(=O)N2CCC3(CCN(CCC(C)(C)C)CC3)CC2)c1Cl [Example 182, (5-Chloro-3-(5-methylisoxazol-3-yl)-1-propyl-1H-pyrazol-4-yl)(9-(3,3-dimethylbutyl)-3,9-diazaspiro[5.5]undecan-3-yl)methanone] |  | 100 to 500 | < 100 | 
7 | Cc1cc(-c2nn(C)c(Cl)c2C(=O)N2CCC3(CCN(Cc4ccccc4)CC3)CC2)no1 [Example 175, (9-Benzyl-3,9-diazaspiro[5.5]undecan-3-yl)(5-chloro-1-methyl-3-(5-methylisoxazol-3-yl)-1H-pyrazol-4-yl)methanone] |  | 500 to 1000 | < 100 | 
8 | Cn1nc(-c2cccc(C(F)(F)F)n2)c(C(=O)NC2CCN(CCC(C)(C)C)CC2)c1Cl [Example 167, 5-Chloro-N-(1-(3,3-dimethylbutyl)piperidin-4-yl)-1-methyl-3-(6-(trifluoromethyl)pyridin-2-yl)-1H-pyrazole-4-carboxamide] |  | < 100 | < 100 | 
9 | Cc1cc(-c2nn(C)c(Cl)c2CN2CCC3(C2)CN(Cc2ccccc2)C3)no1 [Example 60, 3-(4-((2-Benzyl-2,6-diazaspiro[3.4]octan-6-yl)methyl)-5-chloro-1-methyl-1H-pyrazol-3-yl)-5-methylisoxazole] |  | < 100 | 100 to 500 | 
